Measurements taken from patent US4400517A, “Phosphoric esters derived from 1,2,4-triazole having an insecticidal, nematocidal and acaricidal action, and their preparation” (priority 1976, dated 1983).
Like-named read-outs stand apart in the source and are kept apart here.

Legend:
Format in all cases: in vivo
Spodoptera littoralis = test: Biological activity on Spodoptera littoralis (Lepidoptera); conditions: 48 h
Protocol: (7) Biological activity on Spodoptera littoralis (Lepidoptera)
Cut tobacco leaves were sprinkled with an aqueous dispersion of the products under examination (see Tables 4 and 5).
After drying, the leaves were infested with 5-day old larvae.
The percentage of mortality of the larvae was determined after 48 hours from treatment (untreated leaves, mortality=0).

Culex pipiens = test: Biological activity on Culex pipiens larvae (Diptera); conditions: 24 h
Protocol: (4) Biological activity on Culex pipiens (Diptera)
Into glasses containing an aqueous dispersion of the products under examination (see Tables 4 and 5) there were introduced mosquito larvae of third and fourth age.
The mortality percentage of the larvae (glasses containing pure water=0) was determined after 24 hours from treatment.

Blatta orientalis = test: Biological activity on Blatta orientalis (Ortoptera); conditions: Blatta orientalis, 48 h, read-out: Activity (mortality class), Blatta O.
Protocol: (10) Biological activity on Blatta orientalis (Ortoptera)
The bottom and walls of glass crystallizers were treated uniformly with an acetonic solution of the products under examination (see Tables 4 and 5). After evaporation of the solvent, into each crystallizer were introduced ten 80-100 days old neanides. The crystallizers were then closed with a metal net cover. After 24 hours from the start of the treatment, the insects were transferred to similar untreated crystallizers, and there were appropriately nourished in conventional manner.
The percentage of mortality (untreated insects=0) was determined after 48 hours from the start of the treatment.

[1] = test system: Leptinotarsa decemlineata; test: Biological activity on Leptinotarsa decemlineata (Coleoptera); conditions: 48 h; for mortality at 0.005 %: 0.05%o
Protocol: (3) Biological activity on Leptinotarsa decemlineata (Coleoptera)
Small potato plants grown in pots were infested with 4-day old larvae, and were then sprinkled with an aqueous dispersion of the products under examination (see Tables 4 and 5).
The mortality percentage (untreated small plants=0) was determined after 48 hours from treatment.

Tetranychus urticae [2] = test: Biological activity on adults of Tetranychus urticae (Acari); conditions: 24 h
Protocol: (5) Biological activity on adults of Tetranychus urticae (Acari)
Discs of bean leaves were infested with adult acari and then sprinkled with an aqueous dispersion of the products under examination (see Tables 4 and 5).
The mortality percentage was determined after 24 hours from treatment (untreated leaf discs, mortality=0).

Pieris brassicae = test: Biological activity on Pieris brassicae (Lepidoptera); conditions: 48 h
Protocol: (2) Biological activity on Pieris brassicae (Lepidotera)
Cut-off cauliflower leaves were sprinkled with an aqueous dispersion of the products under examination (see TABLE 5).
After drying, the leaves were infested with 5-day old larvae. The percentage of mortality of the larvae (untreated leaves=0) was determined after 48 hours from treatment.

Tetranychus urticae [3] = test: Biological activity on Tetranychus urticae eggs (Acari); conditions: bean leaf discs, 144 h
Protocol: (6) Biological activity on Tetranychus urticae (Acari)
Small discs of bean leaves were infested with Acari eggs and were then sprinkled with an aqueous dispersion of the products under examination (see Table 5).
The mortality percentage was determined after 6 days from treatment (untreated leaf discs, mortality=0).

Macrosiphum euphorbiae = test: Biological activity on Macrosiphum euphorbiae (Aphides); conditions: potato plants, 24 h
Protocol: (1) Biological activity on Macrosiphum euphorbiae (Aphides)
Potato plants grown in pots were infested with adult females of aphides and, after several hours, were sprinked with an aqueous dispersion of the products under examination (see TABLE 5).
The percentage of mortality was assessed after 24 hours after the treatment (untreated plants=0).

[4] = 0.05%o, Table 5, read-out: Activity (mortality class), Spodoptera L.
[5] = 0.02 ppm, Table 5, read-out: Activity (mortality class), Culex P. (larvae)
[6] = Table 5, read-out: Activity (mortality class), Leptinotarsa D.
[7] = 0.01%o, Table 5, read-out: Activity (mortality class), Tetranychus U. (adults)
[8] = 0.01%o, Table 5, read-out: Activity (mortality class), Pieris B.
[9] = 1%o, Table 5, read-out: Activity (mortality class), Spodoptera L.
[10] = 2 ppm, Table 5, read-out: Activity (mortality class), Culex P. (larvae)
[11] = 1%o, Table 5, read-out: Activity (mortality class), Leptinotarsa D.
[12] = 1%o, Table 5, read-out: Activity (mortality class), Tetranychus U. (adults)
[13] = 1%o, Table 5, read-out: Activity (mortality class), Pieris B.
[14] = read-out: Activity (mortality class), Spodoptera L.
[15] = read-out: Activity (mortality class), Culex P. (larvae)
[16] = read-out: Activity (mortality class), Leptinotarsa D.
[17] = read-out: Activity (mortality class), Tetranychus U. (adults)
[18] = read-out: Activity (mortality class), Pieris B.

Row | SMILES | mortality at 0.005 % (Spodoptera littoralis; [4]) | mortality at 0.02 ppm (Culex pipiens; [5]) | mortality at 0.01 g/m2 (Blatta orientalis; 0,01 g/m^2, Table 5) | mortality at 0.005 % [1, 6] | mortality at 0.001 % (Tetranychus urticae [2]; [7]) | mortality at 0.001 % (Pieris brassicae; [8]) | mortality at 0.1 % (Spodoptera littoralis; [9]) | mortality at 2 ppm (Culex pipiens; [10]) | mortality at 1 g/m2 (Blatta orientalis; 1 g/m^2, Table 5) | mortality at 0.1 % [1, 11] | mortality at 0.1 % (Tetranychus urticae [2]; [12]) | mortality at 0.1 % (Pieris brassicae; [13]) | also measured
1 | CC=Cc1nc(OP(=S)(OCC)OCC)n(CCCC)n1 [M 8497] | 0 to 9% | 0 to 9% | 10 to 69% | 100% | 10 to 69% | 70 to 99% | – | – | – | – | – | – | –
2 | CCOP(=S)(OCC)Oc1nc(C=C(Cl)Cl)nn1CC(C)C [M 8498] | 100% | 70 to 99% | 10 to 69% | 10 to 69% | 10 to 69% | 100% | – | – | – | – | – | – | –
3 | COP(=S)(OC)Oc1nc(C=C(Cl)Cl)nn1C(C)C [M 8499] | 100% | 10 to 69% | 10 to 69% | 0 to 9% | 10 to 69% | 10 to 69% | – | – | – | – | – | – | –
4 | CCCOP(=S)(OCCC)Oc1nc(C=C(Cl)Cl)nn1C(C)C [M 8500] | – | – | – | – | – | 10 to 69% | 10 to 69% | 70 to 99% | 0 to 9% | 100% | 10 to 69% | 100% | –
5 | CCCC=C(CC)c1nc(OP(=S)(OCC)OCC)n(C)n1 [M 8591] | – | – | – | – | 100% | – | 100% | 100% | 100% | 100% | 100% | 100% | –
6 | CCOP(=S)(OCC)Oc1nc(C=C(Cl)OC)nn1C [M 8592] | 100% | 10 to 69% | 100% | 100% | 100% | 100% | 100% | 100% | 100% | 100% | 100% | 100% | –
7 | C=C(C)c1nc(OP(=S)(OCC)OCC)n(C)n1 [M 8593] | – | – | – | – | – | – | – | – | – | – | – | – | mortality at 0.1 % (Spodoptera littoralis; [14]): 100%; Activity (mortality class), Tetranychus U. (eggs) (Tetranychus urticae [3]): ± (10-69% of mort.); mortality at 0.02 ppm (Culex pipiens; [15]): 10 to 69%; mortality at 2 ppm (Culex pipiens; [15]): 100%; mortality at 0.01 g/m2 (Blatta orientalis): 70 to 99%; mortality at 1 g/m2 (Blatta orientalis): 100%; mortality at 0.1 % [1, 16]: 100%; mortality at 0.001 % (Tetranychus urticae [2]; [17]): 10 to 69%; mortality at 0.1 % (Tetranychus urticae [2]; [17]): 100%; Activity (mortality class), Macrosiphum E. (Macrosiphum euphorbiae): ++ (100% of mortality); mortality at 0.1 % (Pieris brassicae; [18]): 100%
8 | CCOP(=S)(OCC)Oc1nc(C=C(Cl)SC)nn1C [M 8805] | – | 100% | – | 100% | 100% | – | – | 100% | – | 100% | 100% | – | mortality at 0.005 % (Spodoptera littoralis; [14]): 100%; mortality at 0.1 % (Spodoptera littoralis; [14]): 100%; mortality at 0.01 g/m2 (Blatta orientalis): 10 to 69%; mortality at 1 g/m2 (Blatta orientalis): 100%; mortality at 0.001 % (Pieris brassicae; [18]): 10 to 69%; mortality at 0.1 % (Pieris brassicae; [18]): 100%
9 | CCOP(=S)(OCC)Oc1nc(C=C(SC)SC)nn1C [M 8825] | 10 to 69% | 70 to 99% | 10 to 69% | 100% | 100% | 0 to 9% | 100% | 100% | 100% | 100% | 100% | 100% | –
10 | CC=Cc1nc(OP(=S)(OCC)OCC)n(C(C)C)n1 [M 9137] | – | – | 10 to 69% | 100% | 10 to 69% | – | – | 100% | 100% | 100% | 100% | 100% | Activity (mortality class), Tetranychus U. (eggs) (Tetranychus urticae [3]): ++ (100% of mortality); Activity (mortality class), Macrosiphum E. (Macrosiphum euphorbiae): ++ (100% of mortality)
11 | CCOP(=S)(OCC)Oc1nc(C(O)CSC)nn1-c1ccccc1 (stereo not drawn) [M 9173] | – | – | – | – | – | – | – | – | – | – | – | – | mortality at 0.1 % (Spodoptera littoralis; [14]): 100%; mortality at 2 ppm (Culex pipiens; [15]): 100%; mortality at 1 g/m2 (Blatta orientalis): 100%; mortality at 0.1 % [1, 16]: 100%; mortality at 0.1 % (Tetranychus urticae [2]; [17]): 100%; Activity (mortality class), Macrosiphum E. (Macrosiphum euphorbiae): ++ (100% of mortality); mortality at 0.1 % (Pieris brassicae; [18]): 100%
